# Data taken from US7109193B2, “Tricyclic diazepines tocolytic oxytocin receptor antagonists” (Wyeth, priority 2001, dated 2006).
# Molecular target: T1, human vasopressin V2 receptor subtype (Homo sapiens, UniProt P30518)
# T1 construct: host or cells: CHO cells (pZeoSV vector)
# Assay: Vasopressin binding in Chinese Hamster Ovary cell membranes expressing human vasopressin V2 subtype receptors
# Conditions: 100 nM, CHO cell membranes, [3H]arginine vasopressin, values without parentheses
# Method: Vasopressin Binding in Chinese Hamster Ovary Cell Membranes Expressing Human Vasopressin V2 Subtype Receptors
# Chinese Hamster Ovary (CHO) cells stably transfected with the human V2 subtype receptors were obtained from M. Thibonnier, Case Western Reserve University School of Medicine, Cleveland, Ohio.
# A. Passaging and Amplification of Cells:
# The trypsin is removed by aspiration and the cells dislodged by tapping. Cell Culture medium (e.g. 30 mL for 1:30 split) is immediately added and mixed well to inactivate trypsin. 1 mL of detached cells is added to new culture flasks containing fresh Cell Culture medium (e.g. into 25 mL per T-150 flask), and mixed gently. The cells are incubated at 37° C. in 5% CO2. The medium is changed at 3 to 4 day interval (or as appropriate). […] All steps are done under sterile conditions. B. Membrane Preparation: The cells are washed twice gently with Hank's Balanced Salt solution (e.g. use 10 mL per T-150 flask). […] The contents are transferred to centrifuge tubes (50 mL) kept in ice bath. All subsequent steps are done at 4° C. The tubes are centrifuged at 300×g for 15 min (1380 rpm on SORVAL, Model RT6000D, using the rotor for 50 mL tubes). The supernatant is discarded and the cells suspended in homogenizing buffer (10 mM Tris-HCl containing 0.25 M sucrose and 1 mM EDTA, pH 7.4) ensuring that the volume of the buffer is about ten times the volume of the cell pellet. The cells are pooled into a centrifuge tube (50 mL) and homogenized with a Polytron at setting 6 for 10 sec. The homogenate is transferred into a Potter-Elvjehm homogenizer and homogenized with 3 strokes. The homogenate is centrifuged at 1500×g for 60 min at 4° C. (3100 rpm using SORVAL, model RT6000D, using the rotor for 50 mL tubes). The pellet is discarded. The supernatant is centrifuged at 100,000×g for 60 min. at 4° C. (Beckman L8-80M ultracentrifuge; spin at 37,500 rpm with rotor type 70 Ti for 50 mL tubes; 38,000 rpm with type 80Ti for 15 mL tubes; or 35,800 rpm with rotor type 45Ti). The supernantant is discarded and the pellet suspended in 3 to 4 mL of Tris buffer (50 mM TRIS-HCl, pH 7.4). The protein content is estimated by the Bradford or Lowry method. The volume of the membrane suspension is adjusted with the membrane buffer (50 mM Tris-HCl containing 0.1% BSA and 0.1 mM PMSF) to give 3.0 mg/mL (or as appropriate) of protein. The membranes are aliquoted and stored at −70° C. C. Radioligand Binding Assay: In wells of a 96-well format microtiter plate, is added 90, 110 or 130 μL (to make up a final volume of 200 μL) of assay buffer containing 50 mM of Tris-HCl (pH 7.4), […], 1 mg % aprotinin, 1 mg % leupeptin, 2 mg % 1,10-phenanthroline, 10 mg % trypsin inhibitor, and 0.1 mM PMSF. The inhibitors are added on the day of the experiment. The components are mixed at room temperature, and then kept in ice bath following adjustment of the pH to 7.4. […] For vasopressin and other peptide ligands 20 μL of 50% DMSO is added and the assay buffer volume is adjusted accordingly. To each well is added 50 μL of frozen membrane suspension thawed immediately prior to use and diluted in assay buffer to the required concentration (equivalent to 25 to 50 μg of protein/well as needed). 20 μL of 8 nM [^3H]arginine vasopressin ligand in the assay buffer, prepared just before use is added and incubated at room temperature for 60 min. shaking the plate on a mechanical shaker for the first 15 min. The incubation is stopped by rapid filtration of the plate contents followed by wash with ice-cold buffer (50 mM Tris-HCl, pH 7.4) using a cell harvester (Tomtek and Printed filtermat-B filter paper). The filter paper is thoroughly dried (7–12 min. in a microwave oven) and impregnated with MeltiLex B/H melt-on scintillation wax sheets and the radioactivity counted in a betaplate scintillation counter.
# T1 sequence (P30518 whole entry): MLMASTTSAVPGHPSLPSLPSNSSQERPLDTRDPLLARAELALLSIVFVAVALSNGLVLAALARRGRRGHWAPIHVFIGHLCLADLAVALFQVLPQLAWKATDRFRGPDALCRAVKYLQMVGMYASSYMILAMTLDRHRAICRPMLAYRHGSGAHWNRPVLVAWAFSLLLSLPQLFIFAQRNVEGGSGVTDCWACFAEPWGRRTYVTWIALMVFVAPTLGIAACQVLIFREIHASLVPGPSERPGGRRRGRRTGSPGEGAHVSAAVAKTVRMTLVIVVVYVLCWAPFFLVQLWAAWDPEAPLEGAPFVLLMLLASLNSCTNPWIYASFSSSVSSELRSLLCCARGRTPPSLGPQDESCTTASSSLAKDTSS
smiles,measurement,value
"Cc1ccccc1-c1ccc(C(=O)N2Cc3ccc(C(=O)NCCN4CCCCC4)n3Cc3ccccc32)cc1C [Example 150, 10-[(2,2′-Dimethyl[1,1′-biphenyl]-4-yl)carbonyl]-N-[2-(1-piperidinyl)ethyl]-10,11-dihydro-5H-pyrrolo[2,1-c][1,4]benzodiazepine-3-carboxamide]",inhibition at 0.1 µM,18%
"COc1cccc(-c2cc(OC)c(C(=O)N3Cc4ccc(C(=O)N5CCC(N6CCCC6)CC5)n4Cc4ccccc43)cc2Cl)c1 [Example 143, {10-[(6-Chloro-3,3′-dimethoxy[1,1′-biphenyl]-4-yl)carbonyl]-10,11-dihydro-5H-pyrrolo[2,1-c][1,4]benzodiazepin-3-yl}[4-(1-pyrrolidinyl)-1-piperidinyl]methanone]",inhibition at 0.1 µM,7%
"COc1cc(C(=O)N2Cc3ccc(C(=O)N4CCC(N5CCCCC5)CC4)n3Cc3ccccc32)ccc1-c1ccccc1C [Example 116, {10-[(2-Methoxy-2′-methyl[1,1′-biphenyl]-4-yl)carbonyl]-10,11-dihydro-5H-pyrrolo[2,1-c][1,4]benzodiazepin-3-yl}[4-(1-piperidinyl)-1-piperidinyl]methanone]",inhibition at 0.1 µM,22%
"COc1cc(-c2ccccc2C)c(Cl)cc1C(=O)N1Cc2ccc(C(=O)N3CCC[C@H]3CN3CCCC3)n2Cc2ccccc21 [Example 267, {10-[(6-Chloro-3-methoxy-2′-methyl[1,1′-biphenyl]-4-yl)carbonyl]-10,11-dihydro-5H-pyrrolo[2,1-c][1,4]benzodiazepin-3-yl}[(2S)-2-(1-pyrrolidinylmethyl)pyrrolidinyl]methanone]",V2 % inhibition @ 100 nM,24%
"Cc1ccccc1-c1ccc(C(=O)N2Cc3ccc(C(=O)N4CC[C@@H](N(C)C)C4)n3Cc3ccccc32)cc1 [Example 280, [(3R)-3-(Dimethylamino)pyrrolidinyl]{10-[(2′-methyl[1,1′-biphenyl]-4-yl)carbonyl]-10,11-dihydro-5H-pyrrolo[2,1-c][1,4]benzodiazepin-3-yl}methanone]",V2 % inhibition @ 100 nM,6%
"Cc1ccccc1-c1ccc(C(=O)N2Cc3ccc(C(=O)N4CC[C@@H](N(C)C)C4)n3Cc3ccccc32)cc1C [Example 274, [(3R)-3-(Dimethylamino)pyrrolidinyl]{10-[(2,2′-dimethyl[1,1′-biphenyl]-4-yl)carbonyl]-10,11-dihydro-5H-pyrrolo[2,1-c][1,4]benzodiazepin-3-yl}methanone]",V2 % inhibition @ 100 nM,32%
"COc1ccccc1-c1ccc(C(=O)N2Cc3ccc(C(=O)N4CC[C@@H](N(C)C)C4)n3Cc3ccccc32)cc1OC [Example 282, {10-[(2,2′-Dimethoxy[1,1′-biphenyl]-4-yl)carbonyl]-10,11-dihydro-5H-pyrrolo[2,1-c][1,4]benzodiazepin-3-yl][(3R)-3-(dimethylamino)pyrrolidinyl]methanone]",V2 % inhibition @ 100 nM,−17%
"COc1cccc(-c2ccc(C(=O)N3Cc4ccc(C(=O)NCCN5CCCCC5)n4Cc4ccccc43)cc2C)c1 [Example 151, 10-[(3′-Methoxy-2-methyl[1,1′-biphenyl]-4-yl)carbonyl]-N-[2-(1-piperidinyl)ethyl]-10,11-dihydro-5H-pyrrolo[2,1-c][1,4]benzodiazepine-3-carboxamide]",inhibition at 0.1 µM,6%
"COc1cc(C(=O)N2Cc3ccc(C(=O)N4CCC[C@H]4CN4CCCC4)n3Cc3ccccc32)ccc1-c1cccc2ccccc12 [Example 262, {10-[3-Methoxy-4-(1-naphthyl)benzoyl]-10,11-dihydro-5H-pyrrolo[2,1-c][1,4]benzodiazepin-3-yl}[(2S)-2-(1-pyrrolidinylmethyl)pyrrolidinyl]methanone]",V2 % inhibition @ 100 nM,4%
O=C(c1ccc2n1Cc1ccccc1N(C(=O)c1ccc(-c3cccc4ccccc34)cc1Cl)C2)N1CCC(N2CCCCC2)CC1 [Example 121],V2 % inhibition @ 100 nM,13%
